Measurements reported in US11559538B2, “Substituted 1,2-oxaborolan-2-ols as PDE4 inhibitors” (Pfizer Inc., priority 2018, dated 2023).
Read-outs that look alike come from different tables or passages of the source.

Experiments:
[1] = target: PDE4B (aa 152-484, Uniprot ID Q07343) (Homo sapiens (Human), UniProt Q07343); assay: PDE4 SPA assay (scintillation proximity assay); format: biochemical; conditions: read-out: PDE4B2 IC50
In short: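 Scintillation proximity read-out after a 30 min room-temperature reaction of ~81.6 pM PDE4B catalytic fragment (aa 152-484) with 1 μM tritiated/unlabeled cAMP, pH 7.5 Tris buffer with MgCl2 and Brij 35. Compound given ~10 min beforehand, 4-fold dilutions, ~2% DMSO; IC50 from four-parameter logistic curve.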

IL-4 = assay: Cytokine assay: IL-4 release from PHA-L stimulated human PBMCs; format: cell-based; conditions: read-out: IL4 IC50
In short: (§1)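 Cytokines IL-4, IL-13 and IFNγ quantified by HTRF after 48 h, 37 °C culture of human PBMCs activated with PHA-L at 3.5 μg/mL final. Test compound, 4-fold dilutions from approximately 10 μM in 0.25% DMSO, was added briefly before stimulation; IC50 derived by four-parameter logistic regression.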

IL-13 = assay: Cytokine assay: IL-13 release from PHA-L stimulated human PBMCs; format: cell-based; conditions: read-out: IL13 IC50
In short: as §1

IFNγ = assay: Cytokine assay: IFNγ release from PHA-L stimulated human PBMCs; format: cell-based
In short: as §1

PDE4B (aa 152-484, Uniprot ID Q07343), sequence (Q07343 324-656): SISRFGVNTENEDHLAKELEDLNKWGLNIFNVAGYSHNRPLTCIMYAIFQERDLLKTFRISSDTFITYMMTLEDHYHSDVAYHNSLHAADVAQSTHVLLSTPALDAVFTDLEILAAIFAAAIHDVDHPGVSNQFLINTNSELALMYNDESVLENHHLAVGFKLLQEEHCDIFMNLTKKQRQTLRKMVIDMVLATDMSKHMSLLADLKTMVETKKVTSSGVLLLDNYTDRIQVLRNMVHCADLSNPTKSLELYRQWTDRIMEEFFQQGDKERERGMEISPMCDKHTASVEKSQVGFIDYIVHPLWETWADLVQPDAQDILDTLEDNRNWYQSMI

IC50 [1] | IC50 (IL-4; Homo sapiens, PBMC) | IC50 (IL-13; Homo sapiens, PBMC) | IC50 (IFNγ; Homo sapiens, PBMC) | IC50 (IL-4) | IC50 (IL-13) | IC50 (IFNγ) | Compound
0.97 nM | 3.01 nM | 496 nM | 2.95 nM | – | – | – | CCCOc1cc(-c2cncc(C3COB(O)C3)c2)c(F)cc1OC (single isomer, unassigned) [Example 111, 4-(5-(2-fluoro-4-methoxy-5-propoxyphenyl)pyridin-3-yl)-1,2-oxaborolan-2-ol]
0.47 nM | 4.85 nM | 369 nM | 1.5 nM | – | – | – | COc1ccc(-c2cncc(C3COB(O)C3)c2)cc1OC1CSC1 (stereo not drawn) [Example 68, 4-(5-(4-methoxy-3-(thietan-3-yloxy)phenyl)pyridin-3-yl)-1,2-oxaborolan-2-ol]
12.5 nM | 9.58 nM | 606 nM | 3.88 nM | – | – | – | CCOc1c(OC)ccc(-c2cncc(C3COB(O)C3)c2)c1C(F)(F)F (stereo not drawn) [Example 94, 4-(5-(3-ethoxy-4-methoxy-2-(trifluoromethyl)phenyl)pyridin-3-yl)-1,2-oxaborolan-2-ol]
0.25 nM | – | – | – | 0.78 nM | 788 nM | 0.4 nM | CCOc1cc(-c2cncc(C3COB(O)C3)c2C(F)F)ccc1OC (single isomer, unassigned) [Example 139, 4-(4-(difluoromethyl)-5-(3-ethoxy-4-methoxyphenyl)pyridin-3-yl)-1,2-oxaborolan-2-ol]
2.41 nM | 27.1 nM | – | 4.17 nM | – | 613 nM | – | COc1ccc(-c2cncc(C3COB(O)C3)c2)c(F)c1OC (stereo not drawn) [Example 107, 4-(5-(2-fluoro-3,4-dimethoxyphenyl)pyridin-3-yl)-1,2-oxaborolan-2-ol]
5.51 nM | 6.51 nM | 1140 nM | 2.98 nM | – | – | – | COc1cc(-c2ccc(OC)c(OC3CCCC3)c2)nc(C2COB(O)C2)n1 (single isomer, unassigned; enantiomer 2) [Example 176, 4-(4-(3-(cyclopentyloxy)-4-methoxyphenyl)-6-methoxypyrimidin-2-yl)-1,2-oxaborolan-2-ol, enantiomer 2]
0.69 nM | 57.4 nM | 533 nM | 1.5 nM | – | – | – | CCOc1nc(-c2cccc(C3COB(O)C3)c2)ccc1OC (stereo not drawn) [Example 121, 4-(3-(6-ethoxy-5-methoxypyridin-2-yl)phenyl)-1,2-oxaborolan-2-ol]
12 nM | 59.1 nM | 929 nM | 10.2 nM | – | – | – | CCCOc1cc(-c2cc(C)cc(C3COB(O)C3)n2)ccc1OC (stereo not drawn) [Example 158, 4-(6-(4-methoxy-3-propoxyphenyl)-4-methylpyridin-2-yl)-1,2-oxaborolan-2-ol]
1.27 nM | 3.73 nM | 337 nM | 1.64 nM | – | – | – | CCCOc1cc(-c2cncc(C3COB(O)C3)c2)cnc1OC (stereo not drawn) [Example 51, 4-(6′-methoxy-5′-propoxy-[3,3′-bipyridin]-5-yl)-1,2-oxaborolan-2-ol]
5.58 nM | 41.1 nM | 986 nM | 7.87 nM | – | – | – | CCOc1c(OC)cc(F)c(-c2cncc(C3COB(O)C3)c2)c1F (single isomer, unassigned; enantiomer 1) [Example 164, (−) 4-(5-(3-ethoxy-2,6-difluoro-4-methoxyphenyl)pyridin-3-yl)-1,2-oxaborolan-2-ol, enantiomer 1]
1.37 nM | 44.3 nM | 957 nM | 9.42 nM | – | – | – | CSc1ccc(-c2cncc(C3COB(O)C3)c2)cc1OC1CCCC1 (stereo not drawn) [Example 99, 4-(5-(3-(cyclopentyloxy)-4-(methylthio)phenyl)pyridin-3-yl)-1,2-oxaborolan-2-ol]
0.37 nM | 29.2 nM | 175 nM | 1.28 nM | – | – | – | COc1ccc(-c2cccc(C3COB(O)C3)c2)cc1OCCCF (stereo not drawn) [Example 40, 4-(3′-(3-fluoropropoxy)-4′-methoxy-[1,1′-biphenyl]-3-yl)-1,2-oxaborolan-2-ol]
1.41 nM | – | 588 nM | – | 79.9 nM | – | 8.1 nM | CCCOc1cc(-c2cncc(C3COB(O)C3)c2)ccc1SC (stereo not drawn) [Example 112, 4-(5-(4-(methylthio)-3-propoxyphenyl)pyridin-3-yl)-1,2-oxaborolan-2-ol]
0.88 nM | 1.17 nM | 1260 nM | 0.64 nM | – | – | – | CCCOc1c(OC)ccc(-c2cncc(C3COB(O)C3)c2)c1OC (single isomer, unassigned; enantiomer 1) [Example 168, (−) 4-(5-(2,4-dimethoxy-3-propoxphenyl)pyridin-3-yl)-1,2-oxaborolan-2-ol, enantiomer 1]
0.85 nM | 103 nM | 375 nM | 6.21 nM | – | – | – | CCOc1cc(-c2nc(C3COB(O)C3)ns2)ccc1OC (stereo not drawn) [Example 72, 4-(5-(3-ethoxy-4-methoxyphenyl)-1,2,4-thiadiazol-3-yl)-1,2-oxaborolan-2-ol]
5.5 nM | 20.5 nM | 2070 nM | 10.3 nM | – | – | – | CCOc1ccc(-c2cncc(C3COB(O)C3)c2)c(F)c1OC (stereo not drawn) [Example 217, 4-(5-(4-ethoxy-2-fluoro-3-methoxyphenyl)pyridin-3-yl)-1,2-oxaborolan-2-ol]
26.9 nM | 86.8 nM | 8790 nM | 103 nM | – | – | – | CCOc1cc(-c2cc([C@H]3COB(O)C3)cnc2C)ccc1OC (single isomer, unassigned) [Example 20]
3.01 nM | 6.33 nM | 1290 nM | 6.65 nM | – | – | – | CCCOc1cc(-c2cc(C3COB(O)C3)cc(CO)n2)ccc1OC (single isomer, unassigned; enantiomer 1) [Example 180, 4-(2-(hydroxymethyl)-6-(4-methoxy-3-propoxyphenyl)pyridin-4-yl)-1,2-oxaborolan-2-ol, enantiomer 1]
1.34 nM | – | – | – | 19.8 nM | 2150 nM | 4.62 nM | COc1ccc(-c2cncc(C3COB(O)C3)c2)cc1OC1CCSC1 (stereo not drawn) [Example 80, 4-(5-(4-methoxy-3-((tetrahydrothiophen-3-yl)oxy)phenyl)pyridin-3-yl)-1,2-oxaborolan-2-ol]
0.74 nM | 1.91 nM | 218 nM | 2.23 nM | – | – | – | CCCOc1cc(-c2cncc(C3COB(O)C3)c2)cnc1OC (single isomer, unassigned) [Example 18, 4-(6′-methoxy-5′-propoxy-[3,3′-bipyridin]-5-yl)-1,2-oxaborolan-2-ol]
0.52 nM | 14.3 nM | 309 nM | 1.39 nM | – | – | – | CCCOc1cc(-c2cncc(C3COB(O)C3)c2)ccc1OC (stereo not drawn) [Example 34, 4-(5-(4-methoxy-3-propoxyphenyl)pyridin-3-yl)-1,2-oxaborolan-2-ol]
1.08 nM | – | – | – | 2.32 nM | 162 nM | 0.99 nM | CCOc1cc(-c2cncc(C3COB(O)C3)c2)cc(F)c1OC (single isomer, unassigned) [Example 12, 4-(5-(3-ethoxy-5-fluoro-4-methoxyphenyl)pyridin-3-yl)-1,2-oxaborolan-2-ol]
1.24 nM | 0.9 nM | 444 nM | 0.44 nM | – | – | – | CCCOc1cc(-c2cncc(C3COB(O)C3)c2C)ccc1OC (stereo not drawn) [Example 84, 4-(5-(4-methoxy-3-propoxyphenyl)-4-methylpyridin-3-yl)-1,2-oxaborolan-2-ol]
4.65 nM | 197 nM | 583 nM | 17.9 nM | – | – | – | COc1ccc(-c2cccc(C3COB(O)C3)c2)cc1OC (stereo not drawn) [Example 232, 4-(3′,4′-dimethoxy-[1,1′-biphenyl]-3-yl)-1,2-oxaborolan-2-ol]
2.21 nM | – | – | – | 47.4 nM | 2430 nM | 9.35 nM | COc1ccc(-c2cncc(C3COB(O)C3)c2)cc1OC (single isomer, unassigned; enantiomer 2) [Example 221, 4-(5-(3,4-dimethoxyphenyl)pyridin-3-yl)-1,2-oxaborolan-2-ol, enantiomer 2]
3.2 nM | 14.2 nM | – | 5.46 nM | – | 490 nM | – | CCCOc1cc(-c2cncc(C3COB(O)C3)c2)ccc1OCC (single isomer, unassigned) [Example 105, 4-(5-(4-ethoxy-3-propoxyphenyl)pyridin-3-yl)-1,2-oxaborolan-2-ol]
3.84 nM | 176 nM | 1500 nM | 4.42 nM | – | – | – | CCOc1c(OC)ccc(-c2cccc(C3COB(O)C3)c2)c1C#N (stereo not drawn) [Example 191, 3-ethoxy-3′-(2-hydroxy-1,2-oxaborolan-4-yl)-4-methoxy-[1,1′-biphenyl]-2-carbonitrile]
0.55 nM | 19.1 nM | – | – | – | 416 nM | 1.35 nM | COc1ccc(-c2cncc(C3COB(O)C3)c2)cc1OC1CCSC1 (stereo not drawn) [Example 78, 4-(5-(4-methoxy-3-((tetrahydrothiophen-3-yl)oxy)phenyl)pyridin-3-yl)-1,2-oxaborolan-2-ol]
5.74 nM | 53.1 nM | 667 nM | 2.25 nM | – | – | – | CCCOc1cc(-c2cccc(C3COB(O)C3)n2)ccc1OC (single isomer, unassigned) [Example 128, 4-(6-(4-methoxy-3-propoxyphenyl)pyridin-2-yl)-1,2-oxaborolan-2-ol]
1.5 nM | 3.21 nM | 91 nM | 1.85 nM | – | – | – | CCOc1cc(-c2cncc(C3COB(O)C3)c2)c(F)cc1OC (single isomer, unassigned) [Example 14, 4-(5-(5-ethoxy-2-fluoro-4-methoxyphenyl)pyridin-3-yl)-1,2-oxaborolan-2-ol]
